# Values joined by “and” are separate entries in the source; they are usually repeats but may differ in a detail not shown here. Identical values can stand only once. “Also recorded” adds a separate entry of the source. Like-named read-outs stand apart in the source and are kept apart here.
# Legend:
# [1] = system: parainfluenza virus type 3 (PIV3); assay type: in vivo, cotton rats (Sigmodon hispidus)
# Description: (§1) Inbred cotton rats (Sigmodon hispidus) were obtained from the colony of Virion Systems, Inc. Adult animals, free from specific rodent pathogens, were used. Animals were housed in large polycarbonate rat cages with a bedding of hardwood chips, and fed a diet of standard rat chow and water. Adult animals ranging from 1 to 8 months of age were used. No age-related differences in response to infection or treatment were seen.
# (§2) Hydrocortisone acetate was selected as the prototypical corticosteroid for the anti-inflammatory studies. Cotton rats were infected (Day 0) by intranasal instillation of PIV3 (10^6 pfu/animal) or Ad-5 (10^9 pfu/animal). Animals were anesthetized with methoxyflurane, and the inoculating virus was delivered in a volume of 0.1 ml/100 gm body weight of the animal. On Day 3, animals were anesthetized with methoxyflurane, and hydrocortisone acetate (50 mg/ml) was instilled intranasally in a volume of 0.1 ml/100 gm body weight. The same treatment with hydrocortisone acetate was repeated once per day on Days 4 and 5. For purposes of comparison, control animals were infected concurrently on Day 0, but received no treatment on Days 3, 4, or 5. On Day 6, all animals were euthanized by carbon dioxide intoxication.
# These included dexamethasone acetate (8 mg/ml) and triamcinolone acetonide (40 mg/ml). Of course, other corticosteroids or anti-inflammatory agents known to one of ordinary skill in the art could also be used.
# (§3) Lungs were removed from the thorax and inflated through the trachea with neutral buffered formalin. Histologic sections were made by following standard procedures and stained with hematoxylin and eosin (H&E).
# (§4) Topical administration was accomplished by anesthetizing the animals, holding them in a vertical posture, and instilling a solution containing corticosteroid onto the nares. A total volume of 0.1 ml/100 gm body weight was used. […] However, for human administration it is desirable to use a small particle aerosol delivered by a device that could be triggered by inhalation or used synchronously with the inhalation phase of ventilation for patients on a ventilator. Such a device could deliver aerosol from powder (spinhaler) or liquid. Since many patients, especially young infants and debilitated adults, may have diminished respiratory inhalation vigor, it is important to synchronize aerosol generation with inhalation. This could be accomplished by having inhalation trigger the aerosol delivery to the airway (nasal prongs, oral tube, etc.). The trigger mechanism could include negative pressure from inhalation, chest movement, or electrical triggering synchronized with diaphragmatic contraction. Electrical leads used to monitor respirations could be used to synchronize aerosol generation to be triggered at the first initiation of diaphragmatic contraction and respiration. Any form of aerosol generator is suitable if aerosol delivery is synchronized with inhalation and appropriate particle size is consistently generated.
# (§5) Therapeutic efficacy is determined by comparing two parameters in treated versus control animals: (1) the percentage of alveoli on a single H&E-stained coronal section of lungs containing interstitial and/or intraalveolar pathology; and (2) the percentage of bronchioles, on the same section of lungs, affected by peribronchiolar lymphocytic infiltration.
# Triamcinolone acetonide was selected as the prototypical corticosteroid for the combined anti-infective and anti-inflammatory studies. […] Therefore, the use of triamcinolone acetonide is merely by example of a general property of corticosteroids. Cotton rats were infected (Day 0) by intranasal instillation of PIV3 (10^6 pfu/animal) or RSV (10^5 pfu/animal). Animals were anesthetized with methoxyflurane, and the inoculating virus was delivered in a volume of 0.1 ml/100 gm body weight of the animal. […]
# [2] = system: respiratory syncytial virus (RSV); assay type: in vivo; conditions: for % Bronchioles: group mean, Table 8, triamcinolone acetonide 4 mg/kg, ribavirin 20 mg/kg, topical Days 3, 4, 5, Day 6; for effect on pulmonary pathology (in words): topical treatment Days 3, 4, 5
# Procedure: (§6) Triamcinolone acetonide was selected as the prototypical corticosteroid for the combined anti-infective and anti-inflammatory studies. […] Cotton rats were infected (Day 0) by intranasal instillation of PIV3 (10^6 pfu/animal) or RSV (10^5 pfu/animal). Animals were anesthetized with methoxyflurane, and the inoculating virus was delivered in a volume of 0.1 ml/100 gm body weight of the animal. On Day 3, animals were anesthetized with methoxyflurane, and treated by intranasal instillation of anti-infective agent or a combination of anti-infective agent and corticosteroid, in a volume of 0.1 ml/100 gm body weight. The same treatment was repeated once per day on Days 4 and 5. For purposes of comparison, control animals were infected concurrently on Day 0, but received no treatment on Days 3, 4, or 5. On Day 6, the time of maximum pulmonary pathology in infected, untreated animals, all animals were euthanized by carbon dioxide intoxication.
# (§7) Three experiments were performed using combined therapy: (1) anti-PIV3 antibody (100 mg/kg) and triamcinolone acetonide (4 mg/kg) were used to treat PIV3 infection; (2) anti-RSV antibody (25 mg/kg) and triamcinolone acetonide (4 mg/kg) were used to treat RSV infection; (3) ribavirin (20 mg/kg) and triamcinolone acetonide (4 mg/kg) were used to treat RSV infection. All agents were administered topically as described above in “Drug Testing”.
# Histopathology studies. After animals were sacrificed by carbon dioxide intoxication, the chest cavity was opened, and the heart and lungs removed intact. The trachea was cannulated with a blunt needle, the lungs inflated with 10% neutral buffered formalin to their normal volume, and the trachea tied with a suture. Coronal sections of the lungs were cut at a thickness of 4 microns, and stained with hematoxylin and eosin.
# Standard published pathologic criteria for the identification and scoring of bronchiolitis and interstitial pneumonia were used (Porter, 1991 J. Virol. 65:103-111). Briefly, bronchiolitis is the accumulation of inflammatory cells, mostly or exclusively lymphocytes, in and around bronchioles. There may be accompanying damage to the epithelial cells, including loss of cilia or cell death. Interstitial pneumonia is thickening of the alveolar walls, usually accompanied by infiltration of inflammatory cells into the alveolar septae. Bronchiolitis was quantitated by examining each bronchiole within the lung section (generally 40-70 bronchioles) and scoring for the presence or absence of lymphocytic infiltration. The percentage of affected bronchioles was then calculated. Interstitial pneumonia was quantitated by estimating the percentage of affected alveolar tissue in the lung section. A minimum of four animals were examined for each time point. Arithmetic means of pathology scores were calculated, and differences between treatment groups evaluated by the Student t-test of summary data. In each experiment, uninfected animals served as sentinels to rule out the presence of adventitious agents.
# [3] = system: respiratory syncytial virus (RSV); assay type: in vivo; conditions: topical treatment Days 3, 4, 5
# Procedure: as §6, §7
# (§8) Cotton rats were challenged to induce infection in the following manner. The frozen virus (usually at a concentration of 10^5 pfu/ml) was thawed and then immediately instilled (0.05 ml/nostril) into anesthetized cotton rats. […] Lungs were removed from the animal, homogenized in tissue culture fluid, and cultured on HEp2 monolayers. The amount of virus was then quantified.
# (§9) A single pool of purified human IgG, with known neutralizing antibody titer, was used with each virus throughout the experiments, to minimize experimental variability. […] Once determined, this dose was used in all subsequent experiments.
# (§10) Titrations of virus in pulmonary tissues. Animals were sacrificed by carbon dioxide intoxication. After the thoracic wall was removed aseptically, the lungs were dissected from the heart, and homogenized in a TenBroeck tissue grinder in 10 parts (v:w) of Hanks, balanced salt solution, modified for stabilizing virus by the addition of 0.218 M sucrose, 4.4 mM glutamate, 3.8 mM KH2PO4 and 7.2 mM K2HPO4. […] After four days incubation at 37° C. under methylcellulose overlay, the cells were stained with crystal violet in glutaraldehyde solution, and the plaques counted. Viral titers were expressed as a geometric mean, plus or minus the standard error, for all animals (a minimum of four) at a given time point. […]
# [4] = system: parainfluenza virus type 3 (PIV3); assay type: in vivo; conditions: topical treatment Days 3, 4, 5
# Procedure: as §6, §7, §8, §9, §10
# adenovirus type 5 (Ad-5) = test: Pulmonary pathology (histology) in Ad-5-infected cotton rats; assay type: in vivo
# Description: as §1, §2, §3, §4, §5
# [5] = group mean, Experiment 5, dexamethasone acetate 8 mg/ml or triamcinolone acetonide 40 mg/ml intranasal Days 3-5, Day 6
# [6] = group mean, Table 6, triamcinolone acetonide 4 mg/kg, anti-PIV3 IgG 100 mg/kg, topical Days 3, 4, 5, Day 6
# [7] = individual animals (Exps. 3, 4)
# [8] = range over experiments, treated vs control
# [9] = mean, Exps. 1, 2, 6 and 7 combined
smiles,measurement,setting,value
"CC(=O)OCC(=O)[C@@]1(O)[C@H](C)C[C@H]2[C@@H]3CCC4=CC(=O)C=C[C@]4(C)[C@@]3(F)[C@@H](O)C[C@@]21C [Dexamethasone, dexamethasone acetate]",reduction of alveolar inflammation compared to control values,[1]; Experiment 5,28%
same,reduction of bronchiolar inflammation compared to control values,[1]; Experiment 5,75%
same,% Alveoli,[1]; [5],50%
same,% Bronchioles,[1]; [5],21%
same,% Bronchioles,"[1]; individual animals, Experiment 5",29% and 21% and 14%
"NC(=O)c1ncn([C@@H]2O[C@H](CO)[C@@H](O)[C@H]2O)n1 [Ribavirin, 1-beta-D-ribofuranosyl-1,2,4,-triazole-3-carboxamide]",% Bronchioles,[2],48 (N.S.) %
same,therapeutic effectiveness against RSV infection (in words),"[2]; ribavirin 20 mg/kg topical, cotton rat",minimally effective
same,effect on pulmonary pathology (in words),[2],nor affected pulmonary pathology
same,effect on pulmonary pathology (in words),[2]; listed as ribavirin,no effect on pulmonary pathology
same,effect on viral titers / viral shedding (in words),[3],neither effected a significant reduction in pulmonary RSV titers
same,effect on viral titers / viral shedding (in words),[3]; listed as ribavirin,did not reduce viral titers
"CC1(C)O[C@@H]2C[C@H]3[C@@H]4CCC5=CC(=O)C=C[C@]5(C)[C@@]4(F)[C@@H](O)C[C@]3(C)[C@]2(C(=O)CO)O1 [Triamcinolone, triamcinolone acetonide]",% Bronchioles,[2],0 (p < 0.001) %
same,effect on pulmonary pathology (in words),[2],dramatically reduced; also recorded: reduced pulmonary pathology
same,effect on viral titers / viral shedding (in words),[4],increased and prolonged viral shedding; also recorded: prolonged and increased viral shedding
same,effect on viral titers / viral shedding (in words),[3],prolonged and increased viral shedding
same,reduction of alveolar inflammation compared to control values,[1]; Experiment 5,80%
same,reduction of bronchiolar inflammation compared to control values,[1]; Experiment 5,89%
same,% Alveoli,[1]; [5],24% and 24 (p < 0.01) %
same,% Bronchioles,[1]; [5],9% and 9 (p < 0.001) %
same,% Alveoli,[1]; [6],10 (p < 0.05) % and 10%
same,% Bronchioles,[1]; [6],6 (p < 0.001) % and 6%
"CC(=O)OCC(=O)[C@@]1(O)CC[C@H]2[C@@H]3CCC4=CC(=O)CC[C@]4(C)[C@H]3[C@@H](O)C[C@@]21C [hydrocortisone acetate, Hydrocortisone acetate]",% Alveoli,adenovirus type 5 (Ad-5); [7],10% (2×) and 5% and 9% and 50% and 40% (2×) and 20%
same,% Bronchioles,adenovirus type 5 (Ad-5); [7],18% and 16% and 21% and 8% and 26% and 37% and 42% and 50%
same,"net reduction in disease, alveolar inflammation",adenovirus type 5 (Ad-5); [8],46-79%
same,"net reduction in disease, bronchiolar inflammation",adenovirus type 5 (Ad-5); [8],57-77%
same,exacerbated disease in treated animals,adenovirus type 5 (Ad-5); topical hydrocortisone acetate,no evidence of exacerbated disease
same,% Bronchioles,"[1]; group mean per experiment (Exps. 1, 2, 6, 7), hydrocortisone acetate 50 mg/ml, 0.1 ml/100 gm intranasal Days 3, 4, 5, histology Day 6",9% and 15%
same,% Alveoli,[1]; [9],24%
same,% Bronchioles,[1]; [9],15%
same,"net reduction in disease, alveolar inflammation",[1]; [8],27-56%
same,"net reduction in disease, bronchiolar inflammation",[1]; [8],77-85%
same,exacerbated disease in treated animals,[1]; topical hydrocortisone acetate,no evidence of exacerbated disease
